Laboratory results reported in PubChem BioAssay AID504394 (Southern Research Specialized Biocontainment Screening …, 2011).
Active and inactive are the calls of the source. No rule for the calls is given here.

These compounds were tested on host cell cytotoxicity, % cell control, 2% serum (assay: host cell cytotoxicity in HIV-1 fusion assay, dose response, cytotoxicity control for HIV-1 antiviral lead project, fusion assay cells, 2% serum, TC50 (AID 504394)).
For `Cc1c2c(=O)n(-c3nc4ccccc4s3)nc-2cc(O)n1Cc1ccccc1Cl`, the TC50 was 38.1 µM. `O=C(O)CCCN1C(=O)/C(=C/c2ccc(-c3cccc(C(F)(F)F)c3)o2)SC1=S` was tested, and the TC50 was > 100 µM (inactive). In the case of `CCOC(=O)C1=C(C)N=c2sc(=Cc3ccc(OCC(=O)O)cc3)c(=O)n2C1c1ccccc1OC` (configuration not stated), the TC50 is reported as > 100 µM (inactive). `COc1ccc(-c2ccc(/C=C3\SC(=S)N(CCCC(=O)O)C3=O)o2)cc1` showed a TC50 of 68.3 µM. `Cc1ccc(-n2cccc2/C=C2/C(=N)N3C(=NC2=O)SN=C3S(C)(=O)=O)cc1` gave a TC50 of 66.5 µM. In the case of `Cc1c2c(=O)n(-c3nc4ccccc4s3)nc-2cc(O)n1Cc1ccc(F)cc1`, the TC50 is reported as 59.9 µM. With `Nc1sc2ccccc2[n+]1Cc1ccc(C(=O)O)cc1` the TC50 was > 100 µM (inactive). `O=C(O)CCC(C(=O)O)N1C(=O)/C(=C\c2ccco2)SC1=S` (configuration not stated) was tested, and the TC50 was > 100 µM (inactive). Compound `O=C(O)CCCN1C(=O)/C(=C/c2ccc(-c3ccc(Cl)c(Cl)c3)o2)SC1=S` has a TC50 of 12.4 µM. With `CCOC(=O)C1=C(C)N=c2sc(=Cc3ccc(OCC(=O)O)cc3)c(=O)n2C1c1ccccc1` (configuration not stated) the TC50 was > 100 µM (inactive). With `CCOC(=O)C1=C(C)N=c2sc(=Cc3ccc(OCC(=O)O)cc3)c(=O)n2C1c1cc(OC)c(OC)c(OC)c1` (configuration not stated) the TC50 was > 100 µM (inactive). For `CS(=O)(=O)C1=NSC2=NC(=O)/C(=C\c3cccn3-c3cccc(F)c3)C(=N)N21`, the TC50 was > 100 µM (inactive). For `CCOC(=O)C1=C(C)N=c2sc(=Cc3ccc(OCC(=O)O)cc3)c(=O)n2C1c1ccc(F)cc1` (configuration not stated), the TC50 was > 100 µM (inactive). `Cc1c2c(=O)n(-c3nc4ccccc4s3)nc-2cc(O)n1CCC(C)C` was tested, and the TC50 was 68.5 µM. For `CCOc1ccc(-n2cccc2/C=C2/C(=N)N3C(=NC2=O)SN=C3S(C)(=O)=O)cc1`, the TC50 was 84.7 µM. `Cc1c2c(=O)n(-c3nc4ccccc4s3)nc-2cc(O)n1Cc1ccncc1` was tested, and the TC50 was > 100 µM (inactive). `COc1cccc(C2C(C(=O)Nc3ccccc3)=C(C)N=c3sc(=Cc4ccc(OCC(=O)O)cc4)c(=O)n32)c1` (configuration not stated) was tested, and the TC50 was > 100 µM (inactive). With `Cc1ccc(-c2ccc(/C=C3\SC(=S)N(CCCC(=O)O)C3=O)o2)cc1` the TC50 was > 100 µM (inactive). `CC1=C(C(=O)OC(C)C)C(c2ccc(Cl)cc2)n2c(s/c(=C\c3ccc(OCC(=O)O)cc3)c2=O)=N1` (configuration not stated) was tested, and the TC50 was > 100 µM (inactive). `Cc1c2c(=O)n(-c3nc4ccccc4s3)nc-2cc(O)n1CCc1ccc(O)cc1` showed a TC50 of 30 µM. With `O=C(O)c1ccc(C[n+]2c(-c3ccccc3)csc2Nc2ccccc2)cc1` the TC50 was > 100 µM (inactive). `COc1ccc(CCn2c(O)cc3nn(-c4nc5ccccc5s4)c(=O)c-3c2C)cc1` gave a TC50 of 63.2 µM. `CS(=O)(=O)C1=NSC2=NC(=O)/C(=C\c3cccn3-c3ccc(Br)cc3)C(=N)N21` was tested, and the TC50 was 46.2 µM. For `O=C(O)c1ccc(C[n+]2c(-c3ccc([N+](=O)[O-])cc3)csc2Nc2ccccc2)cc1`, the TC50 was > 100 µM (inactive). `CCOC(=O)C1=C(c2ccccc2)N=c2s/c(=C\c3ccc(OCC(=O)O)cc3)c(=O)n2C1c1cccc(OC)c1` (configuration not stated) was tested, and the TC50 was 80.4 µM. For `COc1cccc(-n2cccc2/C=C2/C(=N)N3C(=NC2=O)SN=C3S(C)(=O)=O)c1`, the TC50 was > 100 µM (inactive). `CCOC(=O)C1=C(C)N=c2sc(=Cc3ccc(OCC(=O)O)cc3)c(=O)n2C1c1ccc(OC)cc1OC` (configuration not stated) was tested, and the TC50 was > 100 µM (inactive). Work on `O=C(O)CCCN1C(=O)/C(=C\c2ccc(-c3ccc(F)cc3)o2)SC1=S` yielded a TC50 of 38.1 µM. In the case of `CS(=O)(=O)C1=NSC2=NC(=O)/C(=C\c3cccn3-c3ccc(F)cc3)C(=N)N21`, the TC50 is reported as > 100 µM (inactive). In the case of `CS(=O)(=O)C1=NSC2=NC(=O)/C(=C\c3cccn3-c3cccc(C(F)(F)F)c3)C(=N)N21`, the TC50 is reported as > 100 µM (inactive). `O=C(O)CCCN1C(=O)/C(=C\c2ccc(-c3cccc(Cl)c3)o2)SC1=S` was tested, and the TC50 was > 100 µM (inactive). With `Cc1c2c(=O)n(-c3nc4ccccc4s3)nc-2cc(O)n1CCc1cccs1` the TC50 was > 100 µM (inactive). In the case of `O=C(O)c1ccc([C@@H]2Nc3ccc(S(=O)(=O)Nc4cccc5ccccc45)cc3[C@@H]3C=CC[C@@H]32)cc1`, the TC50 is reported as > 100 µM (inactive). Work on `Cc1c2c(=O)n(-c3nc4ccccc4s3)nc-2cc(O)n1C1CC1` yielded a TC50 of 83.9 µM. With `Cc1c2c(=O)n(-c3nc4ccccc4s3)nc-2cc(O)n1Cc1cccnc1` the TC50 was > 100 µM (inactive). Work on `COc1ccc(Cn2c(O)cc3nn(-c4nc5ccccc5s4)c(=O)c-3c2C)cc1` yielded a TC50 of 61.8 µM. `CCOC(=O)C1=C(C)N=c2s/c(=C\c3ccc(OCC(=O)O)cc3)c(=O)n2C1c1ccc(OC)c(OCC)c1` (configuration not stated) was tested, and the TC50 was 78.4 µM.
